According to patent publication US5016655A, “Cigarette manufacturing process” (priority 1989, dated 1991):
Like-named read-outs stand apart in the source and are kept apart here.

Columns and labels:
F-344 rat esophagus = F-344 rat esophagus vs other tissues; cited from earlier work
tumor formation = conditions: cited from earlier work
rabbits = conditions: TLV documentation (1943); cited from earlier work
[1] = system: localization of nitrosamines (NNN, NNK) in tissues; test: nitrosamine delocalization / blocking, general statements; conditions: in vivo
[2] = system: smoker exposure versus effect level in animals; test: daily body burden and exposure versus effect level
[3] = system: radioactivity ([14C]NNN) in bronchial epithelium; test: cyclohexanol vapor inhalation, [14C]NNN autoradiography (Examples 2 and 3); type: in vivo, C57BL/6J mouse; conditions: vapor 5 min
Protocol: The mouse was kept in the closed beaker for about five minutes as the bottom of the beaker was maintained at 50° C. in a water bath. […] Handbook of Chemistry and Physics (1979), at D-203 to D-217.
One hour later, the mouse was anesthetized lightly by ether and frozen by immersion in dry ice/hexane. […] Control experiments were conducted for comparison purposes and radioactivity was detected in the respiratory epithelium in the controls.
Example 2 was duplicated, except that the mouse was kept in the closed beaker for five minutes as the bottom of the beaker was maintained at 26° C. in a water bath. […] After injection as in Example 2, the mouse was processed in the same manner as in Example 2.

human = conditions: cited from earlier work
[4] = transfer of cyclohexanol into smoke, standard smoking machine (Example 6)
Protocol: Cyclohexanol appears to meet these criteria.
Cigarettes were hand-laced with cyclohexanol, that is by evenly injecting the alcohol into the rod of a manufactured cigarette using a machine-controlled syringe. […] Sixty cigarettes were smoked on a standard smoking machine using Cambridge filter pads to collect the particulate phase, where most of the material is carried. A transfer efficiency of ten percent was established with this test cigarette. […]. The load was 620 micrograms per cigarette, and the transfer efficiency was ten percent. […].

[5] = Table V; cited from earlier work
[6] = calculated air concentrations of cyclohexanol from cigarette smoke; conditions: nine puffs at 35 ml, 315 ml
Protocol: Therefore, 0.050 would be in 315 ml, which would be expected from nine puffs at 35 ml per puff. […] However, this exposure in contrast to the eight-hour work day assumption of the TLV is only during the actual puffing time for the smoker.

mice = conditions: cited from earlier work
[7] = transfer of cyclohexanol to cigarette smoke, gas chromatography (Example 7)
Protocol: This work was performed to determine the amount of cyclohexanol transferred to smoke from cigarettes loaded with the chemical. Duplicate runs were carried out. In each run, smoke from twenty cigarettes, twelve puffs/cigarette, was collected. Cyclohexanol was analyzed in both the particulate (filter extract) and non-particulate phases of cigarette smoke by gas chromatography. A standard curve was made and analyzed simultaneously with the samples.
The total volume of smoke from 20 cigarettes=12×33.3×20=7992 ml [formula]
These calculations are based on the following information:
Using conventional manufacturing practices, 1,000 pounds of dressed rag tobacco yields 510,000 finished cigarettes. These ratios and yields are to be strictly monitored. The ratio of top dressing to rag tobacco is based on the published TLV's for the active ingredient of this dressing--cyclohexanol.

[8] = system: nitrosamine ([14C]NNN) localization; test: imidazole intraperitoneal, [14C]NNN autoradiography (Examples 4 and 5); type: in vivo, male C57BL/6J mouse; conditions: ip
Protocol: An adult male C57BL/6J mouse was injected intraperitoneally with 0.02 ml/g body weight of a solution of imidazole in water. The imidazole solution concentration was such that 0.05 g of imidazole was delivered per kg of body weight. […] See Example 1.
Example 4 was duplicated except that the adult mouse was injected intraperitoneally with 0.02 ml/g body weight of a solution of imidazole in water, wherein the solution concentration was such that 0.25 g of imidazole was delivered per kg of body weight.

[9] = system: localization of radioactivity ([14C]NNN) in bronchial epithelium; test: effect of substances on localization of radioactivity one hour after intravenous [14C]NNN (Table VI); type: in vivo, mice; conditions: one hour after intravenous [14C]NNN; solids at ambient temperature
Description: Table VI below lists the compounds tested for their effect on the localization of radioactivity in bronchial epithelium one hour after intravenous administration of [^14 C]NNN. Unless indicated otherwise, the compounds were parenterally administered acutely at various times prior to [^14 C]NNN. In many cases only one mouse was studied for each compound. […].
Effect of substances on the localization of radioactivity in bronchial epithelium of mice one hour after intravenously receiving [^14 C] nitrosonornicotine.
For all the remaining compounds the general protocol was to administer the potential blocker some minutes prior to administration of the [^14 C]NNN. Potential blockers were given orally, intraperitoneally or by inhalation, and the [^14 C]NNN was given intravenously.

O=NN1CCCC1c1cccnc1 (centres unmarked) [NNN, N'-Nitrosonoronicotine]
hydroxylation at the a-carbon of NNN adjacent to the pyridine ring (F-344 rat esophagus): preferentially catalyzes hydroxylation | number of sites of tumor formation (tumor formation; nasal cavity, salivary duct, esophagus, bronchial epithelium, liver): five

OC1CCCCC1 [Cyclohexanol]
slight degenerative changes, air level (rabbits): about 600 mg per cubic meter | effectiveness against NNN or NNK [1]: effective against NNN | efficacy in the laboratory [1]: highly effective in the laboratory | body burden from a pack of cigarettes ([2]; all cyclohexanol in smoke absorbed, 20 cigarettes): 1.0 mg | daily burden ([2]; one pack a day smoker): 0.014 mg/kg | mouse iv toxic dose versus human exposure ([2]; one pack a day smoker): 20,000 times | difference in exposure versus effect level in animals ([2]; rats, pharmacological changes (enzyme or neurotoxicity)): ~20,000 fold | radioactivity in bronchial epithelium ([3]; 26° C., 0.001% in air): No radioactivity was detected | radioactivity in bronchial epithelium ([3]; 50° C., 0.01% in air): No radioactivity was detected | TLV (human; Example 7 summary): 200 | TLV (human; Table of smokestream concentrations): 200.0 µg/L | TLV (human; Table of smokestream concentrations, listed as cyclohexanol): 200 µg/L | OSHA safe air level (human; eight continuous hours): two hundred | Toxicity: OSHA time weighted average limit (human; eight hour work day and forty hour work week): 200 mg/m^3 | smoked concentration as % of TLV ([4]; 620 micrograms per cigarette): 99 % of cyclohexanol TLV | smoked concentration as % of TLV ([4]; 8750 micrograms loaded per cigarette): 1389 % of TLV | Boiling Point [5]: 161 °C | instantaneous concentration to a smoker as % of TLV [6]: about 75 % of the TLV value | acute intravenous toxic dose (mice): 270 mg/kg | % of TLV ([7]; Example 7 summary): 59.5% | Percent of TLV ([7]; Fully Smoked Cigarette): 59.5% | Percent TLV ([7]; Instant ("Puff") Exposure): 4.9%

CN(CCCC(=O)c1cccnc1)N=O [NNK]
carcinogenicity / tumor induction (tumor formation; rat, in vivo): powerful environmental carcinogens

c1c[nH]cn1 [imidazole]
nitrosamine delocalization ([8]; 0.05 g/kg): Significant nitrosamine delocalization | nitrosamine delocalization ([8]; 0.25 g/kg): significant delocalization of nitrosamine | nitrosamine delocalization / inhibition of nitrosamine localization [1]: found to delocalize nitrosamines | decrease in the localization of radioactivity in bronchial epithelium [9]: significant decrease
